Measurements from patent publication US10624887B2, “Compositions of (-)-17-(cyclobutylmethyl)morphinan-3,14,-diol” (priority 2010, dated 2020).

Legend:
Assay type in all cases: in vivo, Wistar rats
nociception in rats = experiment: Eddy's hot plate test; conditions: butorphanol 1 mg/kg
Method: Heat is often used as a noxious stimulus in models of pain. Typically, the latency of the rat's response to the thermal stimulus is recorded as the dependent variable. To determine whether a test compound has analgesic properties, the latency responses of treated and control rats are evaluated. […] The latency of response will vary depending on the type of heat stimulus used. In the hot-plate assay, the rat is placed on a heated surface and the latency for the rat to respond to the stimulus, by licking its paw or jumping, is recorded. […]
Three groups were employed in the present study with each group comprising of 8 animals. […] Hot plate latency was assessed at 0, 30, 45 and 60 minutes after administration of the butorphanol. Area under the curve was calculated using a graph between % MPE and time. Area under the curve was employed as a quantitative measure of the analgesic effect of the treatments.
Nociceptive threshold was measured with the Eddy's hot plate test. […] Reaction time is expressed as a percentage of the maximum possible effect (MPE): […]
The anti-nociceptive effect following intragastric, intra-ileal and intra-colonic administration was assessed in terms of area under the curve calculated from a graph having time (relative to dosing time point) on the x-axis and percent maximum possible effect (% MPE) on the y-axis. The results were expressed as mean±standard error of means (S.E.M.). […]

[1] = system: streptozotocin (STZ) induced diabetes neuropathy; experiment: Streptozotocin induced diabetic neuropathy, cold allodynia (acetone drop test); conditions: STZ diabetic neuropathic rats
Method: The aim of this study was to evaluate the effect of oral administration of butorphanol in rats with streptozotocin (STZ) induced diabetes neuropathy. A single injection of streptozotocin (STZ) (40-70 mg/kg, i.p.) was used to induce diabetes in rats. The primary measurements were made mechanical and thermal allodynia designed to detect effects of the treatment(s) on neuropathic pain.
(§1) Wistar rats weighing 250±20 g were maintained on standard laboratory diet and having free access to tap water ad lib were employed in the present study. They were housed in the animal house and were exposed to 12 hr cycle of light and dark. The experiments were conducted in a semi-sound proof laboratory. Care of the animals was in accordance with guidelines for experimentation on animals.
The STZ-induced diabetes model was adapted from Arison et al (1967).
On the experimental day 1 all rats were fasted 6-8 hrs prior to STZ treatment Immediately prior to the injection, STZ was dissolved in 50 Mm sodium citrate buffer (pH 4.5) to a final concentration of 10 mg/ml. […]
(§2) For the assessment of cold allodynia, which was stable for 3 weeks, the rats were placed on a wire mesh covered with a plastic dome and were allowed to habituate until the exploratory behavior diminished. Cold allodynia was measured as the number of foot withdrawal responses after application of stimuli to the plantar surface of the paw. […] Acetone was applied two times (once every 5 min) on the left paw, and the number of reactions (shaking, tapping, or licking) was counted during 30 sec. […] The score was expressed as accumulated numbers of reactions over the trials and determined before and 30 and 60 min after administration of the test drugs. Each individual test was expressed as a percentage of maximum possible effect (% MPE): […]
(§3) MPE (%) at 30 min time point was employed as a quantitative measure of the analgesic effect of the test drugs.
The anti-nociceptive effect was plotted assessed having time (relative to dosing time point) on the x-axis and percent maximum possible effect (% MPE) on the y-axis. […]

[2] = system: paclitaxel induced painful neuropathy; experiment: Paclitaxel induced painful neuropathy, cold allodynia (acetone drop test); conditions: paclitaxel neuropathic rats
Text: The aim of this study was to evaluate the effect of oral administration of butorphanol in rats with paclitaxel induced painful neuropathy. The primary measurements were made mechanical and thermal allodynia designed to detect effects of the treatment(s) on neuropathic pain.
as §1
Rats were injected on five alternate days (day 4, 6, 8, 10 & 12) with paclitaxel (2 mg/kg i.p.) using an injection volume of 2 ml/kg. Thus, the cumulative dose of paclitaxel was computed to be 10 mg/kg. Tests took place ten days after the last injection and continued over the next three weeks. […]
as §2, §3
The anti-nociceptive effect was plotted assessed having time (relative to dosing time point) on the x-axis and percent maximum possible effect (% MPE) on the y-axis. The results were expressed as mean±standard error of means (S.E.M.). […]

## Oc1ccc2c(c1)[C@@]13CCCC[C@@]1(O)[C@@H](C2)N(CC1CCC1)CC3 [butorphanol, (−)17-(Cyclobutylmethyl)morphinan-3,14-diol]
Nociception in rats; hot plate, FIG. 14
  antinociceptive effect (area under the curve of % MPE vs time), intra-colonic versus intra-gastric or intra-ileal: significantly greater antinociceptive effect
Nociception in rats; intra-gastric, intra-ileal and intra-colonic administration, each, rats
  hot plate latency: significant increase
[1]; oral 1, 3, 10, 30 mg/kg, FIG. 20
  cold allodynia score: dose dependent decrease
[1]; oral
  cold allodynia withdrawal threshold in comparison to the control readings: significant increase
  time of peak effect post-administration (cold allodynia): 30 min
[2]; oral
  cold allodynia withdrawal threshold in comparison to the control readings: significant increase
  time of peak effect post-administration (cold allodynia): 30 min
[2]; p.o. 0.01, 0.03, 0.1, 0.3 mg/kg, FIG. 18
  cold allodynia score: dose dependent decrease
